In brackets after ≈: the same amount, converted by molar mass. Read-outs that look alike come from different tables or passages of the source.
Assays:
C. acnes (ATCC No. 6919) = experiment: Growth inhibition of C. acnes in Fluid Thioglycollate culture tubes; format: cell-based, Corynebacterium acnes; conditions: for MIC: Cutibacterium acnes, read-out: Inhibitory Concentration at 72 Hours; for Effect on growth of C. acnes: at 200 μg/ml.
Method: Culture tubes are prepared containing 10 ml. of freshly prepared Difco Fluid Thioglycollate medium with agar and indicator. […] Each tube is inoculated with 0.2 ml. of a 48 hour culture of C. acnes (ATCC No. 6919), and the tubes are inspected at 24 hour intervals. Incubation at 37° C.

[1] = target: T1, crude enzyme from cultures of Corynebacterium acnes (ATCC No. 6919) (lipolytic enzymes) (Cutibacterium acnes, UniProt Q59644); experiment: Inhibition of triolein hydrolysis by Corynebacterium acnes lipolytic enzyme (radiolabelled triolein, TLC of free oleic acid); format: biochemical; conditions: 60 minutes at room temperature, pH 7.1 phosphate buffer, triolein 2mM; read-out: Concentration Causing 50% Inhibition of Triolein (2mM) Hydrolysis
T1 construct: crude ethanol-acetic acid precipitate of three-day cultures, Sephadex G-25 and G-100 fractions
T1 sequence (Q59644 entry or part of it): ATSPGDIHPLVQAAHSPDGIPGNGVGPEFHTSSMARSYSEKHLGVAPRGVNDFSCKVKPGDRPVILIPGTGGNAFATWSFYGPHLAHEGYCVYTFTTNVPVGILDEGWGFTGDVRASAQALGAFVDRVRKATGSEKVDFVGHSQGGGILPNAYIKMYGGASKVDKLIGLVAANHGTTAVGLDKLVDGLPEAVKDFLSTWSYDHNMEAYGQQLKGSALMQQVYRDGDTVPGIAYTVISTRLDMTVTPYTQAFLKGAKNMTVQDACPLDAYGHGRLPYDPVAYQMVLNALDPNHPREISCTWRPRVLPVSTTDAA
Method: A 1 ml. aliquot of glyceryl trioleate-(9,10)T is separated on TLC (silica gel) in hexane-ether-acetic acid (70:30:1) and the area corresponding to pure triolein is eluted. The radioactive material is diluted with cold, previously purified triolein (8.8639 g.) in 500 ml. of benzene. The resulting solution is 20mM in triolein.
The crude enzyme prepared by ethanol-acetic acid precipitation from three day cultures of Corynebacterium acnes (ATCC No. 6919) is passed successively through Sephadex G-25 and G-100 columns, and the concentrate is diluted to 250 ml. for use in the assay described below.
An emulsion is prepared by evaporating 5.70 ml. of the benzene solution, prepared in Example 1 above; 6 ml. of 10% gum arabic in water and 3.4 ml. of 0.05M phosphate buffer (pH 7.1) are added, and the mixture is sonicated for three 20 second intervals. Aliquots (0.7 ml.) containing […] emulsified triolein are added to each of 10 1/6 dram vials for each compound to be assayed.
Vial No. 1 receives an additional 0.3 ml. buffer at time 0, and acts as 0 control. […]
The hydrolysis is allowed to proceed for 60 minutes at room temperature, after which time, the vials are transferred to a silicone oil bath and maintained at 95° C. […] The areas corresponding to free oleic acid (after visualization with iodine vapor) are scraped directly into scintillation vials and counted. […]

[2] = Double-blind crossover study of 5% oleic acid diethanolamide gel on the face, forehead surface lipids; format: in vivo, human subjects
Excerpt: The subjects were selected on the basis of having a higher than 20 % free fatty acid content in their individual total sebum. None were on systemic antibiotic therapy during the course of this study.
The subjects were instructed to wash three times daily with Ivory soap, immediately after rinsing and drying the face to apply sufficient medication (active agent or placebo) to cover the entire face with the exception of the eye and cheekbone areas, and to gently massage the medication into the skin. Each treatment was continued for the last 6 weeks of the study, no medication being used, however, during the two-week no-treatment period. No other therapy was permitted on the face during the course of the study. No medicated soaps or shampoos, oily hair dressings or any hair sprays were permitted. Cosmetics other than lipstick and eyeshadow were not to be applied on the days of sebum collection. On days of sebum collection, the forehead was not to be washed, wiped, or touched in the 6 hours between the time of cleansing and the time of sebum collection.
Twice a week during the first two weeks of the study, a forehead sample of surface lipids were obtained from each subject and measured for total weight and free fatty acids. No medication or placebo therapy was employed during this two-week period. These samples from each subject constitute the baseline data for this study. Twice a week for the next 6 weeks, further surface lipid samples were taken from each subject and analyzed. In all cases, the surface lipid samples were collected by drawing sebum from both the left and right sides of the subject's forehead.

[3] = ATCC6919, 72 hours, 37° C., Difco Fluid Thioglycollate medium
[4] = 5% gel of Example 8, topical three times daily, two-week treatment, 21 subjects

`C=CCCCCCCCCC(=O)N(CCO)CCO` [Undecylenic diethanolamide, reference compound] showed an MIC (C. acnes (ATCC No. 6919); [3]) of over 300 µg/mL.

`CCCCCCCCCCCCCCCC(=O)N(CCO)CCO` [Palmitic acid diethanolamide] gave an MIC (C. acnes (ATCC No. 6919); [3]) of about 6.25 µg/mL (≈ 18.2 µM).

For N-morpholinooleamide, the IC50 [1] was 700 µM.

In the case of `CCCCCCCC/C=C\CCCCCCCC(=O)N(CCO)CCO` [Oleic acid diethanolamide], the MIC (C. acnes (ATCC No. 6919); [3]) is reported as about 12.5 µg/mL (≈ 33.8 µM), the “free fatty acid values, average lowering versus placebo” value [2, 4] is reported as 11% and the “total sebum values, average lowering versus placebo” value [2, 4] is reported as 8%. For the same compound, the “carryover effect upon total sebum level” value ([2]; 5% gel, crossover study) was “no indication of a carryover effect”, the “overall reduction of average free fatty acid content, end of active treatment versus immediately prior to treatment” value ([2]; 5% gel, two-week treatment) was “approximately 20%” and the “Maximum reduction in free fatty acid levels, subject two” value ([2]; 5% gel, two-week treatment, subject two) was 78%. For the same compound, the “duration of carryover effect upon free fatty acid levels after termination of use” value ([2]; subjects given active agent before placebo) was “at least two weeks”.

With `CCCCCCCCCCCCCC(=O)N(CCO)CCO` [Myristic acid diethanolamide] the MIC (C. acnes (ATCC No. 6919); [3]) was about 6.25 µg/mL (≈ 19.8 µM).

In the case of `CCCCCCCC/C=C\CCCCCCCC(=O)O` [Oleic acid, reference compound], the “Effect on growth of C. acnes” value (C. acnes (ATCC No. 6919); 72 hours) is reported as “growth stimulatory”.

`CC(C)CCCCCCCCCCCCCCC(=O)N(CCO)CCO` [Isostearic acid diethanolamide] showed an MIC (C. acnes (ATCC No. 6919); [3]) of about 12.5 µg/mL (≈ 33.6 µM).

In the case of `CCCCCCCC/C=C\CCCCCCCC(=O)OCC(COC(=O)CCCCCCC/C=C\CCCCCCCC)OC(=O)CCCCCCC/C=C\CCCCCCCC` [Triolein, reference compound], the “Effect on growth of C. acnes” value (C. acnes (ATCC No. 6919); 72 hours) is reported as “growth stimulatory”.

With `CCCCCCCCCCCC(=O)N(CCO)CCO` [Lauric acid diethanolamide] the MIC (C. acnes (ATCC No. 6919); ATCC6919, 72 h) was about 12.5 µg/mL (≈ 43.5 µM).
